These results are taken from ChEMBL document CHEMBL1132496, “Combining in vitro and in vivo pharmacokinetic data for prediction of hepatic drug clearance in humans by artificial neural networks and multivariate statistical techniques” (J Med Chem, 1999).

For one data set, the species on record is Homo sapiens. As to conditions: hepatocytes.
The species entered for the next data set is Rattus norvegicus. As to conditions: hepatocytes.
A short description of data set [1]: in vivo. Particulars: rat.
Description: In vivo clearance in rat.
The species entered for a further data set is Canis familiaris. As to conditions: dog, hepatocytes.
Data set [2] is described as follows: in vivo. Particulars: dog.
Description: In vivo clearance in dog.
Data set [3] can be described thus: clinical. As to conditions: human, in vivo.
Description: In vivo clearance in human.
Data set [4] is described as follows: clinical. Particulars: human, in vivo. This is another data set of the same source.
Description: In vivo clearance in human
Data set [5] is described as follows: in vivo. As to conditions: rat. The source holds these as a separate data set.
Data set [6] can be described thus: in vivo. As to conditions: dog. This is another data set of the same source.

Description for Canis familiaris: In vitro clearance in dog in 1000000 cells
Description for Homo sapiens: In vitro clearance in human in 1000000 cells
Description for Rattus norvegicus: In vitro clearance in rat in 1000000 cells

Take `COc1ccccc1Oc1c(NS(=O)(=O)c2ccc(C(C)(C)C)cc2)nc(-c2ncccn2)nc1OCCO` [BOSENTAN]: the clearance in the data set listed under Homo sapiens is 0.2 µL/min; in the data set filed under Rattus norvegicus it was 1.3 µL/min; in “in vivo [1]”, 55 mL/min/kg; in the data set listed under Canis familiaris it was 0.2 µL/min; in “in vivo [2]”, 1.9 mL/min/kg; in “clinical [3]” it was 3.7 mL/min/kg.

Regarding `C/C(=C\c1ccc(OCCN2CCOCC2)cc1)c1ccc2c(c1)C(C)(C)CCC2(C)C` [MOFAROTENE], the clearance in the data set filed under Homo sapiens turned out to be 2 µL/min; in the data set filed under Rattus norvegicus, 2.3 µL/min; in the data set “in vivo [1]”, 16 mL/min/kg; in the data set listed under Canis familiaris it was 1 µL/min; in the data set “in vivo [2]”, 5.8 mL/min/kg; in “clinical [3]”, 11 mL/min/kg.

In the case of `Cc1cc(=O)n(-c2ccccc2)n1C` [ANTIPYRINE], the clearance in the data set listed under Homo sapiens was 0.1 µL/min; in the data set listed under Rattus norvegicus, 0.4 µL/min; in the data set filed under Canis familiaris, 1 µL/min; in the data set “clinical [4]”, 0.5 mL/min/kg; in “in vivo [5]” it was 7 mL/min/kg; in the data set “in vivo [6]”, 4.9 mL/min/kg.

In the case of `Cn1c(=O)c2[nH]cnc2n(C)c1=O.O` [THEOPHYLLINE], the clearance in the data set listed under Homo sapiens amounted to 0.1 µL/min; in the data set listed under Rattus norvegicus, 0.2 µL/min; in the data set filed under Canis familiaris, 0.2 µL/min; in the data set “clinical [4]”, 0.6 mL/min/kg; in the data set “in vivo [5]” it was 2.2 mL/min/kg; in “in vivo [6]”, 1.5 mL/min/kg.

As for `COCC(=O)O[C@]1(CCN(C)CCCc2nc3ccccc3[nH]2)CCc2cc(F)ccc2[C@@H]1C(C)C` [MIBEFRADIL], the clearance in the data set listed under Homo sapiens turned out to be 0.9 µL/min; in the data set listed under Rattus norvegicus, 5.4 µL/min; in “in vivo [1]”, 94 mL/min/kg; in the data set listed under Canis familiaris, 6.2 µL/min; in “in vivo [2]” it was 36 mL/min/kg; in “clinical [3]” it was 7 mL/min/kg.

Turning to `COc1ccc([C@@H]2Sc3ccccc3N(CCN(C)C)C(=O)[C@@H]2OC(C)=O)cc1` [DILTIAZEM], the clearance in the data set listed under Homo sapiens is 1.9 µL/min; in the data set filed under Rattus norvegicus it was 43.6 µL/min; in the data set “in vivo [1]” it was 87.2 mL/min/kg; in the data set filed under Canis familiaris it was 2.7 µL/min; in “in vivo [2]”, 46.1 mL/min/kg.

On to `CC(C)(C)S(=O)(=O)C[C@@H](Cc1ccccc1)C(=O)N[C@@H](Cc1cnc[nH]1)C(=O)N[C@@H](CC1CCCCC1)[C@@H](O)[C@@H](O)C1CC1`, for which the clearance turned out to be 19.5 µL/min in the data set listed under Homo sapiens; 16.6 µL/min in the data set listed under Rattus norvegicus; 19.6 mL/min/kg in “clinical [4]”; 119 mL/min/kg in “in vivo [5]”; 3 mL/min/kg in the data set “in vivo [6]”.

With `Cc1ccc(C(=O)c2cc(O)c(O)c([N+](=O)[O-])c2)cc1` [TOLCAPONE], the clearance worked out at 1.2 µL/min in the data set listed under Homo sapiens; 2.6 µL/min in the data set filed under Rattus norvegicus; 1.4 µL/min in the data set filed under Canis familiaris; 2.7 mL/min/kg in “clinical [4]”; 15 mL/min/kg in “in vivo [5]”; 3.3 mL/min/kg in the data set “in vivo [6]”.

Take `O=C1Nc2ccc(Cl)cc2C(c2ccccc2Cl)=NC1O` (stereo not given) [LORAZEPAM]: the clearance was determined as 0.3 µL/min in the data set listed under Homo sapiens; 3.8 µL/min in the data set listed under Rattus norvegicus; 18.1 µL/min in the data set filed under Canis familiaris; 1.1 mL/min/kg in the data set “clinical [4]”; 27.2 mL/min/kg in the data set “in vivo [5]”; 26.1 mL/min/kg in “in vivo [6]”.

As to `CCOC(=O)C1=C(C)NC(C)=C(C(=O)OC)C1c1cccc([N+](=O)[O-])c1` (stereo not given) [NITRENDIPINE], the clearance is 12 µL/min in the data set filed under Homo sapiens; 24 µL/min in the data set filed under Rattus norvegicus; 8.1 µL/min in the data set filed under Canis familiaris; 18.7 mL/min/kg in the data set “clinical [4]”; 16.5 mL/min/kg in the data set “in vivo [5]”; 21.7 mL/min/kg in the data set “in vivo [6]”.

With `Cn1c(=O)c2c(ncn2C)n(C)c1=O` [CAFFEINE], the clearance in the data set filed under Homo sapiens came out at 0.1 µL/min; in the data set listed under Rattus norvegicus, 0.6 µL/min; in the data set listed under Canis familiaris, 0.2 µL/min; in “clinical [4]”, 2 mL/min/kg; in the data set “in vivo [5]” it was 13 mL/min/kg; in “in vivo [6]”, 2.6 mL/min/kg.

In the case of `Cc1ncc2n1-c1ccc(Cl)cc1C(c1ccccc1F)=NC2` [MIDAZOLAM], the clearance in the data set filed under Homo sapiens was determined as 4.5 µL/min; in the data set filed under Rattus norvegicus it was 16.7 µL/min; in the data set “in vivo [1]” it was 130 mL/min/kg; in the data set “clinical [3]”, 11 mL/min/kg.

For the molecule `C=CCN1CC[C@]23c4c5ccc(O)c4O[C@H]2C(=O)CC[C@@]3(O)[C@H]1C5` [NALOXONE], the clearance is 16.7 µL/min in the data set listed under Homo sapiens; 54.6 µL/min in the data set filed under Rattus norvegicus; 32.1 µL/min in the data set filed under Canis familiaris; 25 mL/min/kg in “clinical [4]”; 48.8 mL/min/kg in “in vivo [5]”; 42.5 mL/min/kg in the data set “in vivo [6]”.

As for `COC(=O)C1=C(C#N)NC(C)=C(C(=O)OC(C)C)C1c1cccc([N+](=O)[O-])c1` (stereo not given) [NILVADIPINE], the clearance in the data set listed under Homo sapiens was found to be 13.3 µL/min; in the data set listed under Rattus norvegicus, 29.7 µL/min; in the data set filed under Canis familiaris it was 10.9 µL/min; in “clinical [4]” it was 20 mL/min/kg; in the data set “in vivo [5]”, 94 mL/min/kg; in “in vivo [6]”, 15.3 mL/min/kg.
